Our source for the IC50 and GI50 values is patent US12668584B2, “Heterocyclic compounds as kinase inhibitors for therapeutic uses” (National Health Research Institutes, priority 2019, dated 2026).

For assay [1], the target named is T1, CSF1R kinase (recombinant N-terminal GST-CSF1R, residues L534-C972) (Homo sapiens, UniProt P07333).
T1 construct: Recombinant N-terminal GST-CSF1R (CSF1R residues L534-C972) containing the CSFIR kinase domain; made in house; host or cells: Sf9 insect cells
T1 sequence (P07333 534-972): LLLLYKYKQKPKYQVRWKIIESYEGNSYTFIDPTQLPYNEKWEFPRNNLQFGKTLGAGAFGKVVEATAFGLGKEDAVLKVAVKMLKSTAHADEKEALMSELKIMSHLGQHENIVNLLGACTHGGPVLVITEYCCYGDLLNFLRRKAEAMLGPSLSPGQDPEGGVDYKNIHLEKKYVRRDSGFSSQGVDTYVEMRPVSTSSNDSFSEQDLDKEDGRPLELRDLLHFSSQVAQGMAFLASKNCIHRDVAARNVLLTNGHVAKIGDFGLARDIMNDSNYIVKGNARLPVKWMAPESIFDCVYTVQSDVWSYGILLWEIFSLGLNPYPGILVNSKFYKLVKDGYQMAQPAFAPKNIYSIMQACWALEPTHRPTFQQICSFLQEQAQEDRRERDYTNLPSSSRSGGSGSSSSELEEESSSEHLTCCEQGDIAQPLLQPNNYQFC
In words: CSF1R Kinase-Glo assay. The note with it: 40 μM ATP, 30° C. 180 min, read-out: Enzymatic Assay CSF1R enzyme IC50. The assay is classed as biochemical. As to the method: A study was conducted to test certain compounds described in EXAMPLE 1 in inhibiting CSF1R kinase activity.
Activity of CSF1R kinase was determined using a CSF1R Kinase-Glo assay. Recombinant N-terminal GST-CSF1R (CSF1R residues L534-C972) containing the CSFIR kinase domain was expressed in Sf9 insect cells and purified. The kinase assay was carried out in 96-well plates at 30° C. for 180 min with the tested compounds in a final volume of 50 μl including the following components: 25 mM Tris-HCl pH 7.4, 4 mM MnCl2, 10 mM MgCl2, 0.01% BSA, 0.5 mM NA3VO4, 0.02% Triton X-100, 40 μM ATP, 2 mM DTT and 20 μM poly(Glu,Tyr) 4:1 peptide, and 600 ng recombinant GST-CSF1R. Following incubation, 50 μl Kinase-Glo Plus Reagent (Promega, Madison, WI, USA) was added and the mixture was incubated at 25° C. for 20 min. A 70-μL aliquot of each reaction mixture was transferred to a black microtiter plate and luminescence was measured on Wallac Vector 1420 multilabel counter (PerkinElmer, Shelton, CT, USA). Percentage inhibition values were obtained by comparison of reaction rate with the rates in control wells (i.e., in the absence of test compound). IC50 values were calculated from a series of percentage inhibition values determined at a range of test compound concentrations using GraphPad Prism version 6 software (GraphPad, San Diego, CA, USA).

Assay [2] has as its system BaF3-CSF1R-1600 cells (express ETV6-CSF1R fusion protein). In words: MTS cell viability assay, BaF3-CSF1R-1600. The assay is classed as cell-based. The note with it: 72 h, read-out: Cellular Proliferation Assay BaF3-CSF1R GI50. As to the method: (§1) Studies were conducted to evaluate […] anticancer activity of certain compounds described in EXAMPLE 1 using 3-(4,5-dimethylthiazol-2-yl)-5-(3-carboxymethoxyphenyl)-2-(4-sulfophenyl)-2H-tetrazolium) (MTS) cell viability assays. Results from these studies are shown in Table 2 below (see columns 3 and 4).
(§2) The cell lines M-NFS-60 (ATCC® CRL-1838™) and BaF3-CSF1R-1600 were obtained from American Type Culture Collection (ATCC, Manassas, VA, USA). The stable BaF3-CSF1R-1600 cell line expresses ETV6-CSF1R fusion protein consisting of N-terminal ETS-variant gene 6 protein (ETV6 residues M1-G337) and CSF1R tyrosine kinase (CSF1R residues L533-C972). The M-NSF-60 and BaF3-CSF1R-1600 cells were cultured in RPMI1640 medium supplemented with 10% fetal bovine serum, 0.05 mM 2-ME, 10 U/ml penicillin, and 10 µg/ml streptomycin at 37° C. and 5% CO2.
(§3) M-NFS-60 and BaF3-CSF1R-1600 cells were seeded in 96-well plates at a density of 10000 cells/100 μl and 8000 cells/100 μl per well, respectively, for 16 h and treated with vehicle or various concentrations of test compounds in medium for 72 h. Viable cells were quantified using the MTS method (Promega, Madison, WI, USA) according to manufacturer's recommended protocol. The results were determined by measuring absorbance at 490 nm using a plate reader (Victor 2). The GI50 value was defined as the amount of compound that caused 50% reduction in cell viability in comparison with DMSO-treated (vehicle) control and was calculated using Prism GraphPad Prism version 6 software (GraphPad).

The subject of another assay is M-NFS-60 cells. In words: MTS cell viability assay, M-NFS-60. The assay is classed as cell-based. The following applies: 72 h, read-out: Cellular Proliferation Assay M-NFS-60 (nM) GI50. The procedure:
as §1, §2, §3

pIC50: −log10 of the molar value. A value given as a limit tells only on which side of the number the result lay.

As usually defined, the pIC50 is the negative decadic logarithm of the IC50, by convention in mol/L. On to `O=C(Nc1ccccc1)Nc1ccc(Oc2ncnc3cc(N4CCCC4)ccc23)cc1` [Compound 9], for which the pIC50 in assay [1] was 7.00 to 7.70. The GI50 (in assay [2]; with M-NFS-60 cells) was 20 to 100 nM in each case. Take `COc1ccc(NC(=O)Nc2ccc(Oc3ncnc4cc(N(C)C)ccc34)cc2)cc1` [Compound 21]: the pIC50 in assay [1] is above 7.70. Besides, the GI50 (in assay [2]; in the assay with M-NFS-60 cells) was 20 to 100 nM each time. For `CN(C)c1ccc2c(Oc3ccc4c(ccn4C(=O)NCc4ccc(C(F)(F)F)nc4)n3)ncnc2c1` [Compound 89], the pIC50 in assay [1] was 6.00 to 7.00.

With `COC(C)(C)CNC(=O)Nc1ccc(Oc2ncnc3cc(N(C)C)ccc23)cc1` [Compound 87], the pIC50 in assay [1] was below 6.00. Take `CN(C)c1ccc2c(Oc3ccc(NC(=O)NCc4ccc(C(F)(F)F)cc4)cc3)ncnc2c1` [Compound 56]: the pIC50 in assay [1] is 7.00 to 7.70. The GI50 in assay [2] was in the range of 20 to 100 nM; in the assay with M-NFS-60 cells, 100 to 1000 nM. The corresponding values for `COC1CCN(c2ccc3c(Oc4ccc(NC(=O)Nc5cccc(Cl)c5)cc4)ncnc3c2)CC1` [Compound 17] are above 7.70, 20 to 100 nM and 20 to 100 nM. Taken in the same sequence, the figures for `CN(C)c1ccc2c(Oc3ccc4nc(NCc5ccc(C(F)(F)F)nc5)oc4c3)ncnc2c1` [Compound 102] were 7.00 to 7.70, 100 to 1000 nM and above 1000 nM. Taken in the same sequence, the figures for `CN(C)c1ccc2c(Oc3ccc(NC(=O)NCc4ccc(C(F)(F)F)nc4)cc3Cl)ncnc2c1` [Compound 25] were 7.00 to 7.70, 100 to 1000 nM and above 1000 nM.

In the case of `CN(C)c1ccc2c(Oc3ccc(NC(=O)Nc4cccc(C(F)(F)F)c4)cc3)ncnc2c1` [Compound 53], in assay [1], the pIC50 is 6.00 to 7.00. Turning to `CN(C)C1CCN(c2ccc3c(Oc4ccc(NC(=O)NCc5ccc(C(F)(F)F)nc5)cc4)ncnc3c2)CC1` [Compound 23], the pIC50 in assay [1] is 7.00 to 7.70. Further, the GI50 (in assay [2]; in the assay with M-NFS-60 cells) was 20 to 100 nM each time. Consider `Cc1cc(Oc2ncnc3cc(N(C)C)ccc23)ccc1NC(=O)NCc1ccc(C(F)(F)F)nc1` [Compound 38], for which the negative-log IC50 (pIC50) in assay [1] was below 6.00.

Turning to `O=C(NCc1ccc(C(F)(F)F)nc1)Nc1ccc(Oc2ccnc(C(=O)NCCCN3CCOCC3)c2)cc1` [Compound 77], the pIC50 in assay [1] is 6.00 to 7.00. Turning to `COCCCNC(=O)c1cc(Oc2ccc(NC(=O)Nc3ccccc3)cc2)ccn1` [Compound 72], in assay [1], the pIC50 is below 6.00. Same read-out and setting: the result for `COCCCNc1ccc2c(Oc3ccc(NC(=O)Nc4ccccc4)cc3)ncnc2c1` [Compound 12] reads 7.00 to 7.70.

With `CN(C)c1ccc2c(Oc3ccc(NC(=O)NCc4ccc(C(F)(F)F)nc4)c(F)c3)ncnc2c1` [Compound 36], in assay [1], the pIC50 was 7.00 to 7.70. For the same compound, the GI50 with M-NFS-60 cells was in the range of 100 to 1000 nM. Regarding `O=C(NCc1ccc(C(F)(F)F)nc1)Nc1ccc(Oc2ncnc3[nH]ccc23)cc1` [Compound 93], the pIC50 in assay [1] was 7.00 to 7.70. As to `O=C(Nc1ccccc1)Nc1ccc(Oc2ncnc3cc(N[C@@H]4CCCC[C@H]4O)ccc23)cc1` [Compound 5], the pIC50 in assay [1] is 7.00 to 7.70. Further, the GI50 in the assay with M-NFS-60 cells lay in the range of 100 to 1000 nM. With `CN(C)c1ccc2c(Oc3ccc(NC(=O)NCC(C)(C)C)cc3)ncnc2c1` [Compound 90], the pIC50 in assay [1] was 6.00 to 7.00.

Turning to `CN(C)c1ccc2c(Oc3ccc(N(C)C(=O)NCc4ccc(C(F)(F)F)nc4)cc3)ncnc2c1` [Compound 47], the pIC50 in assay [1] is below 6.00. `CN(CCCO)c1ccc2c(Oc3ccc(NC(=O)NCc4ccc(C(F)(F)F)nc4)cc3)ncnc2c1` [Compound 39]: the pIC50 in assay [1] is above 7.70. In addition, in the assay with M-NFS-60 cells, the GI50 is 100 to 1000 nM. For `CN(C)c1ccc2c(Oc3ccc(NC(=O)NCc4cccnc4)cc3)ncnc2c1` [Compound 54], the pIC50 in assay [1] was 6.00 to 7.00. On the same count and under the same terms, the result for `COC[C@@H]1CCCN1c1ccc2c(Oc3ccc(NC(=O)Nc4ccccc4)cc3)ncnc2c1` [Compound 6] reads 7.00 to 7.70; that for `CN(C)c1ccc2c(Oc3ccc(NC(=O)Nc4ccc(C(F)(F)F)cc4)cc3)ncnc2c1` [Compound 13], 6.00 to 7.00; that for `CN(C)c1ccc2c(Oc3ccc(NC(=O)NCc4ccn(C)n4)cc3)ncnc2c1` [Compound 84], 6.00 to 7.00. Regarding `CCc1cc(Oc2ncnc3cc(N(C)C)ccc23)ccc1NC(=O)NCc1ccc(C(F)(F)F)nc1` [Compound 29], the pIC50 in assay [1] was 6.00 to 7.00.

In the case of `Cc1cc(Oc2ncnc3cc(N(C)C)ccc23)c(C)cc1NC(=O)NCc1ccc(C(F)(F)F)nc1` [Compound 35], the pIC50 in assay [1] is below 6.00. In the case of `CN(C)c1ccc2c(Oc3ccc4c(cnn4C(=O)NCc4ccc(C(F)(F)F)nc4)c3)ncnc2c1` [Compound 69], in assay [1], the negative-log IC50 (pIC50) is below 6.00. Still for that read-out and setting: the result for `CN(C)c1ccc2c(Oc3ccc(NC(=O)NCc4ccc(C(F)(F)F)nc4)cc3)c(C#N)cnc2c1` [Compound 75] reads below 6.00; that for `CN(C)c1ccc2c(Oc3cnc4c(ccn4C(=O)NCc4ccc(C(F)(F)F)nc4)c3)ncnc2c1` [Compound 83], 6.00 to 7.00; that for `COc1ccc(CNC(=O)Nc2ccc(Oc3ncnc4cc(N(C)C)ccc34)cc2C)cc1` [Compound 64], below 6.00. With `COc1ccc(CNC(=O)Nc2ccc(Oc3ncnc4cc(N(C)C)ccc34)cc2)cc1OC` [Compound 55], the pIC50 in assay [1] was 7.00 to 7.70. The same measure, in the same setting: the result for `CN(C)c1ccc2c(Oc3ccc(NC(=O)NCc4ccc(C(F)(F)F)nc4)cc3)ccnc2c1` [Compound 73] reads 7.00 to 7.70; that for `CN(C)c1ccc2c(Oc3ccc(NC(=O)Nc4cccc5ccccc45)cc3)ncnc2c1` [Compound 52], 6.00 to 7.00. Same read-out and setting: under `CN(C)c1ccc2c(Oc3ccc(NC(=O)NCc4ccc(C(F)(F)F)cc4)c(F)c3)ncnc2c1` [Compound 61] stands 6.00 to 7.00; under `CN(C)c1ccc2c(Nc3ccc(NC(=O)Nc4ccccc4)cc3)ncnc2c1` [Compound 71], 6.00 to 7.00.

Take `CN(C)c1ccc2c(Oc3ccc(NC(=O)NCc4c(F)c(F)c(F)c(F)c4F)cc3)ncnc2c1` [Compound 62]: the pIC50 in assay [1] is above 7.70. Further, in assay [2], the GI50 lay in the range of 100 to 1000 nM.

`CCOc1cc2ncnc(Oc3ccc(NC(=O)NCc4ccc(C(F)(F)F)nc4)cc3)c2cc1F` [Compound 41]: the negative-log IC50 (pIC50) in assay [1] was 7.00 to 7.70. Besides, the GI50 in assay [2] fell in the range of 100 to 1000 nM. Take `CN(C)c1ccc2c(Oc3ccc(NC(=O)NCc4ccc(C#N)cc4)cc3)ncnc2c1` [Compound 60]: the pIC50 in assay [1] is 7.00 to 7.70. Still for that read-out and setting: the result for `Cn1cc(-c2ccc3c(Oc4ccc(NC(=O)NCc5ccc(C(F)(F)F)nc5)cc4)ncnc3c2)cn1` [Compound 85] reads 7.00 to 7.70; that for `CNc1ccc2c(Oc3ccc(NC(=O)Nc4ccccc4)cc3)ncnc2c1` [Compound 107], 7.00 to 7.70. For `O=C(Nc1ccccc1)Nc1ccc(Oc2ncnc3cc(Br)ccc23)cc1` [Compound 7], the negative logarithm of the IC50 (pIC50) in assay [1] is below 6.00.

On to `CN(C)c1ccc2c(Oc3ccc(NC(=O)NCC4CCCCC4)cc3)ncnc2c1` [Compound 50], for which, in assay [1], the pIC50 was 7.00 to 7.70. On the same count and under the same terms, the result for `O=C(Nc1ccccc1)Nc1ccc(Oc2ncnc3cc(F)ccc23)cc1` [Compound 8] reads 6.00 to 7.00; that for `CN(C)c1ccc2c(Oc3ccc(NC(=S)Nc4ccccc4)cc3)ncnc2c1` [Compound 22], 6.00 to 7.00.
